Reference: patent publication US12084411B2, “Hinokitiol analogues, methods of preparing and pharmaceutical compositions thereof” (The Board of Trustees of the University of Illinois, priority 2018, dated 2024)

Columns and labels:
[1] = WST-8 toxicity in Caco-2 cells; details: human
Protocol: (§1) Determination of small molecule-mediated toxicity in Caco-2, MEL, and/or J774 cells was performed according to manufacturer instructions using a WST-8 kit (Cayman Chemical 10010199) similar to previously reported (76) using a 1000× stock of the indicated small molecule in DMSO to give the indicated final concentration.

[2] = Electrochemical studies (cyclic voltammetry) of iron:chelator complexes; assay type: physicochemical
Protocol: Potentiostatic electrochemical methods were performed on a CH Instruments electrochemical workstation (model 760 C, Austin, TX) on a three-electrode cell. Hg working electrodes were fabricated by the electrodeposition of Hg on a Pt wire utilizing the procedure previously described by Barton et al. (70). All experiments were reported versus a Ag/AgCl reference electrode and utilized a graphite auxiliary electrode. The electrolyte was sparged with UHP argon before measurements. A positive pressure of argon was maintained throughout the experiments.
Unless otherwise indicated, experiments used a 0.1 M Tris buffer in H2O or 1:1 MeOH:H2O at pH=7.2 using HNO3 and KOH as titrant. Unless otherwise indicated, experiments used a 100 mV/s scan rate, 100 μM Fe(NO3)3, and 500 μM small molecule. All redox potentials are recorded versus a normal hydrogen electrode (NHE).
The estimated redox potential of Fe(Hino)n was determined through extrapolation of the best-fit line of the determined redox potentials of Fe(Hino)n as a function of the concentration of MeOH in the 0.1 M Tris buffer at pH=7.2.

[3] = molecular target: transferrin (Homo sapiens, UniProt P02787); experiment: Removal of 55Fe from transferrin; assay type: biochemical; details: buffered solution, 1 nM transferrin
Sequence of transferrin (P02787 20-698, species assumed): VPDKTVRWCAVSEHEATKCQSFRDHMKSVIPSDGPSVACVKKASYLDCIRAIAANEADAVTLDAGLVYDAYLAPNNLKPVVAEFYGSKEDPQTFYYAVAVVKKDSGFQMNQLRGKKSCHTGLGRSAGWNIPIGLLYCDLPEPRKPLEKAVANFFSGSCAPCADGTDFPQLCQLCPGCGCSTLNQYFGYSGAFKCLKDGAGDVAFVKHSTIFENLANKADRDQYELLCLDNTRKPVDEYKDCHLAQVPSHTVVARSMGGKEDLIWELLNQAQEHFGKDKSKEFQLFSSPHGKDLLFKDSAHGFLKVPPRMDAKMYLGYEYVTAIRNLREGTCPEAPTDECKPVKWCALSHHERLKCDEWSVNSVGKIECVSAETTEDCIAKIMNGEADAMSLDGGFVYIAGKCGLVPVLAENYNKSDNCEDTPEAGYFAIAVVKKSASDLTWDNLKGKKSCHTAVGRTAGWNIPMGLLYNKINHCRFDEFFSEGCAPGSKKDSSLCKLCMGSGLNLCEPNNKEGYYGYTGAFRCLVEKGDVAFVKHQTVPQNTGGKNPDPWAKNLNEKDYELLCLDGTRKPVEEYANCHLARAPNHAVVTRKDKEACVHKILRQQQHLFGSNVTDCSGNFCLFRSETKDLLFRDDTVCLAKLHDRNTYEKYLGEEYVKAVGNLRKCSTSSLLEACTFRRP
Protocol: The capacity for hinokitiol to remove iron from transferrin was determined through a ^55Fe assay adapted from Cerami and coworkers (62). ^55Fe was loaded onto transferrin (Tf) similar to previously described in PBS buffer (63). Increasing hinokitiol doses (from 1000X stocks in DMSO) were added to a solution of ^55Fe2Tf (1 nM) in PBS buffer to give the final indicated concentrations. The solution was incubated at 37° C. for 3 hours. After incubation, any ^55Fe bound to hinokitiol was isolated by extraction of iron:hinokitiol complexes with EtOAc. The radioactive levels in the organic layer were determined after dilution in scintillation cocktail.

[4] = system: Mfrn1-deficient zebrafish; experiment: Hemoglobinization in Mfrn1-deficient zebrafish; assay type: in vivo, Danio rerio
[5] = system: mice injected with turpentine oil (TO); experiment: Acute anemia of inflammation model, turpentine oil injection; assay type: in vivo; details: once daily for 3 days, 16 h post-injection
Protocol: FIGS. 27A-27E show hinokitiol efficacy in a model of acute anemia of inflammation (Al). Mice (male; C57BL/6; 7-week-old; n=8-10) were administered turpentine oil (TO) (5 mL/kg) or saline, and euthanized 3, 6, 12, 16, 24 h post injection. (A) Hepcidin mRNA measured by qPCR. (B) Proteins quantified by Western blot analysis. (C) Tissue and serum non-heme iron measured by bathophenanthroline colorimetric assay. (D) Hematocrit measured by centrifugation of heparinized capillaries. (E) Mice given compounds indicated once daily for 3 days. On the third day, mice injected with saline or TO, and euthanized 16 h post-injection.
Injection of turpentine oil (TO) is a common method to induce inflammation in mice. […] As a result, iron buildup occurred in the duodenum and spleen. Moreover, serum iron decreased (FIG. 27C) without affecting hematocrit values (FIG. 27D).

[6] = system: shDMT1 Caco-2 monolayers; experiment: Imaging of cytosolic iron with calcein green in Caco-2 monolayers; assay type: cell-based, Human; details: 25 μM FeCl3, 1 hour
Protocol: Temporal live cell imaging of labile iron levels in shDMT1 Caco-2 monolayers was performed after staining of Caco-2 monolayers with calcein green-AM (5 μM) in the apical and basolateral liquid for 30 minutes in pH=7.4 DMEM. […] Final volume administered was 1.5 mL/kg for each mouse, correcting for individual body weight. […] Mice were humanely sacrificed by isoflurane overdose after 6 hours and blood was collected by cardiac puncture. Radioactivity was quantified by gamma counting and calculated as the percentage of gavaged dose (±SEM). Experiments were performed with 4 genotyped-matched mice/day; preliminary analysis determined there were no gender effects on uptake of ^59Fe after intragastric gavage; mixed genders were used in the experiments shown.

[7] = system: FPN1-deficient Caco-2 monolayers; experiment: 55Fe uptake and transport in FPN1-deficient Caco-2 monolayers; assay type: cell-based, Human; details: 1 μM
Protocol: To knockdown FPN1 levels in wild type Caco-2 cells, the differentiated epithelial monolayers were incubated with 150 μM quercetin (Sigma 337951) for 18 hours in Caco-2 Complete media containing G418 similar to previously described (40). To knockdown FPN1 levels in shControl and shDMT1 Caco-2 monolayers, incubation was performed as above except with 250 μM quercetin. After completion of the incubation, the apical and basolateral fluid was aspirated and rinsed with PBS before ^55Fe transport and uptake were determined as described above.

[8] = system: normal MEL cells; experiment: Hemoglobinization of normal MEL cells; assay type: cell-based, mouse; details: same concentration as in deficient system
Protocol: Cells were then incubated at 37° C. for 72 hours unless otherwise noted. […] Hemoglobinized MEL cells were quantified three days after DMSO induction through o-dianisidine staining similar to previously reported (74). Cells were centrifuged three days after induction and rinsed with PBS. […] Cells were then imaged on an AXIO Zoom […] microscope to obtain color images. The number of stained cells were then quantified via ImageJ analysis and compared to the number of total cells in each image. To determine that hinokitiol requires DMSO induction for hemoglobinization, 2% DMSO was not added at the beginning of the experiment before a 72-hour incubation and o-dianisidine staining.

[9] = system: J774; experiment: WST-8 toxicity in J774 cells; assay type: cell-based, mouse; details: J774 macrophages
Protocol: as §1

[10] = WST-8 toxicity in J774 cells; assay type: cell-based, mouse; details: mouse, wild type J774 cells; Wild Type J774, WST-8 assay after ≥24 hours of incubation
Protocol: as §1

[11] = system: DMT1-deficient Caco-2 monolayers; experiment: 55Fe immunoprecipitation of ferritin in Caco-2 monolayers; assay type: cell-based, Human; details: apical hinokitiol 500 nM
Protocol: Immunoprecipitation of ferritin was performed using human anti-FTL1 (Santa Cruz sc-74513) and Protein G PLUS-Agarose beads (Santa Cruz sc-2002). […] Cell lysate was incubated with primary antibody (1:100 dilution) at room temperature for 1 hour, then with the secondary antibody (1:10 dilution) at room temperature for 1 hour with constant mixing. Repeated centrifugations and PBS rinses were performed, and the radioactive levels in the agarose pellet were determined by dilution in scintillation fluid.

[12] = system: fet3Δarn1-4Δ yeast; experiment: Growth rescue of yeast missing all known siderophore transporters on agar plates; assay type: cell-based, Saccharomyces cerevisiae; details: 10 μM hinokitiol, 10 μM FeCl3
Protocol: MES/Tris buffer at pH=7.0 containing 2% agarose gel, 10 μM FeCl3, and 10 μM hinokitiol (from 40X stock in DMSO). […] Yeast were grown overnight in YPD media and diluted to an optical density at 600 nm (OD600) of 1.0 in low iron SD media before 10-fold serial dilution and inoculation of these yeast suspensions (10 μL per dot) onto the low iron SD-agar plates described above containing either DMSO vehicle or hinokitiol (10 μM from 40X DMSO stock).

**Q.** With `CC(C)c1cccc(=O)c(O)c1` [hinokitiol] as the compound, how does the EC90 [1] read?
**A.** > 100 µM

**Q.** And the “E^0 1:1 MeOH:H2O” value ([2]; Table 2, 0.1 M Tris, pH 7.2)?
**A.** −211 mV vs. N.H.E.

**Q.** And the “E^0 Aqueous, estimated from MeOH standard curve” value ([2]; extrapolation of E^01 vs. MeOH concentration)?
**A.** −361^¶ mV vs. N.H.E.

**Q.** And the “excess of hinokitiol relative to transferrin needed to remove iron” value [3]?
**A.** > 1,000 fold

**Q.** What about the “hemoglobinization and GFP-positive erythrocytes” value ([4]; Mfrn1-deficient morphant zebrafish, forty-eight hours) of the same compound?
**A.** restored hemoglobinization and the number of GFP-positive erythrocytes

**Q.** What about the anemic phenotype ([4]; embryos from heterozygous cross of +/frs fish) of the same compound?
**A.** rescued the anemic phenotype

**Q.** And the “hypoferremia induced by TO injection” value [5]?
**A.** mitigated

**Q.** And the “cytosolic labile iron (calcein green)” value [6]?
**A.** increased labile iron up to 5 μM

**Q.** And the iron uptake [7]?
**A.** without affecting iron uptake

**Q.** And the “monolayer integrity (TEER)” value [7]?
**A.** nor disrupting monolayer integrity

**Q.** What about the transepithelial iron transport [7] of the same compound?
**A.** restored transepithelial iron transport

**Q.** And the “effect on hemoglobinization in wild type system” value [8]?
**A.** negligible effects

**Q.** What about the observable toxicity [9] of the same compound?
**A.** without observable toxicity

**Q.** What about the EC90 [10] of the same compound?
**A.** > 100 µM

**Q.** What about the “55Fe incorporation into ferritin” value [11] of the same compound?
**A.** allows for ^55Fe incorporation into ferritin

**Q.** What about the “growth restoration of fet3Δarn1-4Δ yeast” value [12] of the same compound?
**A.** restores growth
